Measurements published in ChEMBL document CHEMBL4007492, “Discovery of an Acrylic Acid Based Tetrahydroisoquinoline as an Orally Bioavailable Selective Estrogen Receptor Degrader for ERα+ Breast Cancer” (J Med Chem, 2017).
Values after ≈ are worked out from the molar mass of the structure shown.

What was measured:
[1] = Stability of the compound in aqueous buffer assessed as compound racemization rate at 5 uM at pH 6.8 after 4 hrs by UPLC analysis; assay type: physicochemical; conditions: pH 6.8, 4 h
Plasma [2] = assay: Metabolic stability of the compound in human plasma assessed as compound racemization rate at 5 uM after 4 hrs by UPLC analysis; assay type: ADME, cell-free
Plasma [3] = assay: Metabolic stability of the compound in cynomolgus monkey plasma assessed as compound racemization rate at 5 uM after 4 hrs by UPLC analysis; assay type: ADME, cell-free, Macaca fascicularis
Plasma [4] = assay: Metabolic stability of the compound in C57BL/6 mouse plasma assessed as compound racemization rate at 5 uM after 4 hrs by UPLC analysis; assay type: ADME, cell-free
Plasma [5] = assay: Metabolic stability of the compound in Beagle dog plasma assessed as compound racemization rate at 5 uM after 4 hrs by UPLC analysis; assay type: ADME, cell-free, Canis lupus familiaris
[6] = Stability of the compound in methanol at room temperature assessed as compound racemization rate at 5 uM at pH 6.8 after 1 hr by UPLC analysis; assay type: physicochemical; conditions: pH 6.8, 1 h
[7] = Stability of the compound in aqueous buffer assessed as compound racemization rate at 5 uM at pH 7.4 after 4 hrs by UPLC analysis; assay type: physicochemical; conditions: pH 7.4, 4 h
Plasma [8] = assay: Metabolic stability of the compound in Sprague Dawley rat plasma assessed as compound racemization rate at 5 uM after 4 hrs by UPLC analysis; assay type: ADME, cell-free
[9] = pampa, 4 h, 5 µM
physchem = conditions: buffer, pH 6.8
[10] = Elimination half life in Sprague-Dawley rat at 1 mg/kg, iv or 3 mg/kg, po administered as solution measured up to 7 hrs by LC/MS/MS analysis; assay type: ADME, organism-based; conditions: in vivo, read-out: beta t1/2 (converted)
in vivo [11] = conditions: C57BL/6, mouse, iv, 1 mg/kg
Canis familiaris [12] = assay: Clearance in Beagle dog at 10 mg/kg, po administered as solution measured up to 7 hrs by LC/MS/MS analysis relative to hepatic blood flow; assay type: ADME, organism-based, Canis lupus familiaris; conditions: in vivo
Rattus norvegicus [13] = assay: Dose normalized AUC (0 to t) in Sprague-Dawley rat at 3 mg/kg, po administered as solution measured up to 7 hrs by LC/MS/MS analysis; assay type: ADME, organism-based; conditions: in vivo
in vivo [14] = conditions: C57BL/6, mouse
[15] = Clearance in Beagle dog at 10 mg/kg, po administered as solution measured up to 7 hrs by LC/MS/MS analysis; assay type: ADME, organism-based, Canis lupus familiaris; conditions: in vivo
Rattus norvegicus [16] = assay: Clearance in Sprague-Dawley rat at 3 mg/kg, po administered as solution measured up to 7 hrs by LC/MS/MS analysis relative to hepatic blood flow; assay type: ADME, organism-based; conditions: in vivo
Rattus norvegicus [17] = assay: Dose normalized AUC (0 to t) in Sprague-Dawley rat at 1 mg/kg, iv administered as solution measured up to 7 hrs by LC/MS/MS analysis; assay type: ADME, organism-based; conditions: in vivo
[18] = Tmax in Sprague-Dawley rat at 3 mg/kg, po administered as suspension measured up to 7 hrs by LC/MS/MS analysis; assay type: ADME, organism-based; conditions: in vivo
Rattus norvegicus [19] = assay: Dose normalized AUC (0 to t) in Sprague-Dawley rat at 3 mg/kg, po administered as suspension measured up to 7 hrs by LC/MS/MS analysis; assay type: ADME, organism-based; conditions: in vivo
[20] = Tmax in Sprague-Dawley rat at 3 mg/kg, po administered as solution measured up to 7 hrs by LC/MS/MS analysis; assay type: ADME, organism-based; conditions: in vivo
[21] = Clearance in Sprague-Dawley rat at 3 mg/kg, po administered as solution measured up to 7 hrs by LC/MS/MS analysis; assay type: ADME, organism-based; conditions: in vivo
Rattus norvegicus [22] = assay: Dose normalized AUC (0 to t) in Sprague-Dawley rat at 30 mg/kg, po administered as suspension measured up to 7 hrs by LC/MS/MS analysis; assay type: ADME, organism-based; conditions: in vivo
[23] = Tmax in Beagle dog at 10 mg/kg, po administered as solution measured up to 7 hrs by LC/MS/MS analysis; assay type: ADME, organism-based, Canis lupus familiaris; conditions: in vivo
[24] = Oral bioavailability in Beagle dog at 10 mg/kg administered as solution measured up to 7 hrs by LC/MS/MS analysis; assay type: ADME, organism-based, Canis lupus familiaris; conditions: in vivo
Rattus norvegicus [25] = assay: Dose normalized Cmax in Sprague-Dawley rat at 100 mg/kg, po administered as suspension measured up to 7 hrs by LC/MS/MS analysis; assay type: ADME, organism-based; conditions: in vivo
[26] = Tmax in Sprague-Dawley rat at 30 mg/kg, po administered as suspension measured up to 7 hrs by LC/MS/MS analysis; assay type: ADME, organism-based; conditions: in vivo
Canis familiaris [27] = assay: Dose normalized Cmax in Beagle dog at 10 mg/kg, po administered as solution measured up to 7 hrs by LC/MS/MS analysis; assay type: ADME, organism-based, Canis lupus familiaris; conditions: in vivo
[28] = Elimination half life in Beagle dog at 0.3 mg/kg, iv or 10 mg/kg, po administered as solution measured up to 7 hrs by LC/MS/MS analysis; assay type: ADME, organism-based, Canis lupus familiaris; conditions: in vivo, read-out: beta t1/2 (converted)
Canis familiaris [29] = assay: Dose normalized AUC (0 to t) in Beagle dog at 10 mg/kg, po administered as solution measured up to 7 hrs by LC/MS/MS analysis; assay type: ADME, organism-based, Canis lupus familiaris; conditions: in vivo
Rattus norvegicus [30] = assay: Dose normalized Cmax in Sprague-Dawley rat at 3 mg/kg, po administered as solution measured up to 7 hrs by LC/MS/MS analysis; assay type: ADME, organism-based; conditions: in vivo
Canis familiaris [31] = assay: Dose normalized AUC (0 to t) in Beagle dog at 0.3 mg/kg, iv administered as solution measured up to 7 hrs by LC/MS/MS analysis; assay type: ADME, organism-based, Canis lupus familiaris; conditions: in vivo
Mus musculus [32] = species on record: Mus musculus; conditions: in vivo, po, 3 mg/kg, 7 h
Mus musculus [33] = species on record: Mus musculus; conditions: in vivo, po, 3 mg/kg
[34] = Tmax in Sprague-Dawley rat at 100 mg/kg, po administered as suspension measured up to 7 hrs by LC/MS/MS analysis; assay type: ADME, organism-based; conditions: in vivo
Mus musculus [35] = species on record: Mus musculus; conditions: in vivo, iv, 1 mg/kg
Rattus norvegicus [36] = assay: Dose normalized Cmax in Sprague-Dawley rat at 30 mg/kg, po administered as suspension measured up to 7 hrs by LC/MS/MS analysis; assay type: ADME, organism-based; conditions: in vivo
Rattus norvegicus [37] = assay: Dose normalized Cmax in Sprague-Dawley rat at 3 mg/kg, po administered as suspension measured up to 7 hrs by LC/MS/MS analysis; assay type: ADME, organism-based; conditions: in vivo
[38] = Oral bioavailability in Sprague-Dawley rat at 3 mg/kg administered as solution measured up to 7 hrs by LC/MS/MS analysis; assay type: ADME, organism-based; conditions: in vivo
in vivo [39] = conditions: C57BL/6, mouse, po, 3 mg/kg
Rattus norvegicus [40] = assay: Dose normalized AUC (0 to t) in Sprague-Dawley rat at 100 mg/kg, po administered as suspension measured up to 7 hrs by LC/MS/MS analysis; assay type: ADME, organism-based; conditions: in vivo

SMILES: CC(C)c1ccc(N2CCc3cc(O)ccc3[C@@]2(C)c2ccc(/C=C/C(=O)O)cc2)cc1
- Drug metabolism [1]: Metabolite_Detected
- Drug metabolism (Plasma [2]): Metabolite_Detected
- Drug metabolism (Plasma [3]): Metabolite_Detected
- Drug metabolism (Plasma [4]): Metabolite_Detected
- Drug metabolism (Plasma [5]): Metabolite_Detected
- Drug metabolism [6]: Metabolite_Detected
- Drug metabolism [7]: Metabolite_Detected
- Drug metabolism (Plasma [8]): Metabolite_Detected

SMILES: CC1(c2ccc(/C=C/C(=O)NCC(F)F)cc2)c2ccc(O)cc2CCN1c1ccc(F)cc1 (stereo not drawn)
- log(permeability) [9]: -4.2
- solubility at 16 h (physchem): < 5 µM

SMILES: CC(C)c1ccc(N2CCc3cc(O)ccc3[C@]2(C)c2ccc(/C=C/C(=O)O)cc2)cc1
- Drug metabolism [1]: Metabolite_Detected
- Drug metabolism (Plasma [2]): Metabolite_Detected
- Drug metabolism (Plasma [3]): Metabolite_Detected
- Drug metabolism (Plasma [4]): Metabolite_Detected
- Drug metabolism (Plasma [5]): Metabolite_Detected
- Drug metabolism [6]: Metabolite_Detected
- Drug metabolism [7]: Metabolite_Detected
- Drug metabolism (Plasma [8]): Metabolite_Detected

SMILES: CC1(c2ccc(/C=C/C(=O)O)cc2)c2ccc(O)cc2CCN1c1cccc(F)c1 (stereo not drawn)
- log(permeability) [9]: -4.3
- solubility at 16 h (physchem): 561 µM (≈ 226 µg/mL)

SMILES: CC(C)c1ccc(N2CCc3cc(O)ccc3C2(C)c2ccc(/C=C/C(=O)O)cc2)cc1 (stereo not drawn)
- half-life [10]: 0.8 h
- clearance at 7 h (in vivo [11]): 7 mL/min/kg
- CL (Canis familiaris [12]): 7%
- AUCt/dose (Rattus norvegicus [13]): 1586 nM·h/mg
- log(permeability) [9]: -4.1
- half-life at 7 h (in vivo [14]): 1.1 h
- CL/F [15]: 2.3 mL/min/kg
- CL (Rattus norvegicus [16]): 27%
- AUCt/dose (Rattus norvegicus [17]): 2627 nM·h/mg
- Tmax [18]: 0.3 h
- AUCt/dose (Rattus norvegicus [19]): 955 nM·h/mg
- solubility at 16 h (physchem): 94 µM (≈ 40.2 µg/mL)
- Tmax [20]: 0.3 h
- CL/F [21]: 14.9 mL/min/kg
- AUCt/dose (Rattus norvegicus [22]): 1125 nM·h/mg
- Tmax [23]: 1.2 h
- bioavailability [24]: 56%
- Cmax/dose (Rattus norvegicus [25]): 202 nM
- Tmax [26]: 2 h
- Cmax/dose (Canis familiaris [27]): 1311 nM
- half-life [28]: 5 h
- AUCt/dose (Canis familiaris [29]): 7994 nM·h/mg
- Cmax/dose (Rattus norvegicus [30]): 1199 nM
- AUCt/dose (Canis familiaris [31]): 14347 nM·h/mg
- Cmax/dose (Mus musculus [32]): 2621 nM
- AUC/dose (Mus musculus [33]): 4533 nM·h/mg
- Tmax [34]: 1.5 h
- AUC/dose (Mus musculus [35]): 5808 nM·h/mg
- Cmax/dose (Rattus norvegicus [36]): 346 nM
- Cmax/dose (Rattus norvegicus [37]): 602 nM
- bioavailability [38]: 60%
- bioavailability at 7 h (in vivo [39]): 78%
- AUCt/dose (Rattus norvegicus [40]): 918 nM·h/mg
